Laboratory results: PubChem BioAssay (NCI)
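Cultured in 96-well plates, cells were exposed to test compound for 48 hours across five concentrations. At the GI50, growth is halved. At the TGI there is no net growth.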

How the values were obtained:
Experiment in all cases: growth of human tumour cells (NCI), 48 h
DU-145 prostate = system: DU-145 prostate
EKVX NSCLC = system: EKVX NSCLC
SNB-75 CNS = system: SNB-75 CNS
MCF7 breast = system: MCF7 breast
PC-3 prostate = system: PC-3 prostate
CAKI-1 renal = system: CAKI-1 renal
HL-60(TB) leukemia = system: HL-60(TB) leukemia
UO-31 renal = system: UO-31 renal
A549 NSCLC = system: A549 NSCLC
NCI-H522 lung = system: NCI-H522 lung
SW-620 colon = system: SW-620 colon
OVCAR-3 ovarian = system: OVCAR-3 ovarian
M14 melanoma = system: M14 melanoma
NCI/ADR-RES ovarian = system: NCI/ADR-RES ovarian
MDA-MB-231 breast = system: MDA-MB-231 breast
NCI-H460 lung = system: NCI-H460 lung
HCC-2998 colon = system: HCC-2998 colon
RPMI-8226 leukemia = system: RPMI-8226 leukemia
OVCAR-8 ovarian = system: OVCAR-8 ovarian
TK-10 renal = system: TK-10 renal
SF-268 CNS = system: SF-268 CNS
SK-MEL-28 melanoma = system: SK-MEL-28 melanoma
HT29 colon = system: HT29 colon
HCT-15 colon = system: HCT-15 colon
HOP-92 NSCLC = system: HOP-92 NSCLC
SNB-19 CNS = system: SNB-19 CNS
A498 renal = system: A498 renal
SR leukemia = system: SR leukemia
SF-295 CNS = system: SF-295 CNS
786-0 renal = system: 786-0 renal
LOX IMVI melanoma = system: LOX IMVI melanoma
OVCAR-5 ovarian = system: OVCAR-5 ovarian
U251 CNS = system: U251 CNS
UACC-62 melanoma = system: UACC-62 melanoma
IGROV1 ovarian = system: IGROV1 ovarian
COLO 205 colon = system: COLO 205 colon
RXF 393 renal = system: RXF 393 renal
HCT-116 colon = system: HCT-116 colon
NCI-H23 lung = system: NCI-H23 lung
ACHN renal = system: ACHN renal
K-562 leukemia = system: K-562 leukemia
HS 578T breast = system: HS 578T breast
KM12 colon = system: KM12 colon
T-47D breast = system: T-47D breast
SK-OV-3 ovarian = system: SK-OV-3 ovarian
SK-MEL-2 melanoma = system: SK-MEL-2 melanoma
MOLT-4 leukemia = system: MOLT-4 leukemia
MDA-MB-435 = system: MDA-MB-435
CCRF-CEM leukemia = system: CCRF-CEM leukemia
OVCAR-4 ovarian = system: OVCAR-4 ovarian
HOP-62 NSCLC = system: HOP-62 NSCLC
SK-MEL-5 melanoma = system: SK-MEL-5 melanoma
BT-549 breast = system: BT-549 breast

CN1CCN(CCCOc2ccc3nc(Nc4ccc(C(F)(F)F)c(Cl)c4)ccc3c2)CC1 was tested, and the GI50 (DU-145 prostate) was 1580 nM, the TGI (DU-145 prostate) was 3090 nM and the GI50 (EKVX NSCLC) was 1740 nM. For the same molecule, the TGI (EKVX NSCLC) was 3630 nM, the GI50 (SNB-75 CNS) was 903 nM and the TGI (SNB-75 CNS) was 2940 nM. It also gave a GI50 (MCF7 breast) of 1370 nM, a TGI (MCF7 breast) of 3560 nM and a GI50 (PC-3 prostate) of 1680 nM. It also gave a TGI (PC-3 prostate) of 3560 nM, a GI50 (CAKI-1 renal) of 1720 nM and a TGI (CAKI-1 renal) of 3820 nM. It also gave a GI50 (HL-60(TB) leukemia) of 1940 nM, a TGI (HL-60(TB) leukemia) of 4010 nM and a GI50 (UO-31 renal) of 1720 nM. It also gave a TGI (UO-31 renal) of 3680 nM, a GI50 (A549 NSCLC) of 1920 nM and a TGI (A549 NSCLC) of 3480 nM. The GI50 (NCI-H522 lung) was 2020 nM, the TGI (NCI-H522 lung) was 3740 nM and the GI50 (SW-620 colon) was 1710 nM. It also gave a TGI (SW-620 colon) of 3330 nM, a GI50 (OVCAR-3 ovarian) of 1640 nM and a TGI (OVCAR-3 ovarian) of 3460 nM. For the same molecule, the GI50 (M14 melanoma) was 1710 nM, the TGI (M14 melanoma) was 3320 nM and the GI50 (NCI/ADR-RES ovarian) was 1880 nM. It also gave a TGI (NCI/ADR-RES ovarian) of 5220 nM, a GI50 (MDA-MB-231 breast) of 1130 nM and a TGI (MDA-MB-231 breast) of 2750 nM. It also gave a GI50 (NCI-H460 lung) of 1880 nM, a TGI (NCI-H460 lung) of 4140 nM and a GI50 (HCC-2998 colon) of 1720 nM. For the same molecule, the TGI (HCC-2998 colon) was 3260 nM, the GI50 (RPMI-8226 leukemia) was 1750 nM and the TGI (RPMI-8226 leukemia) was 4120 nM. The GI50 (OVCAR-8 ovarian) was 2070 nM, the TGI (OVCAR-8 ovarian) was 4640 nM and the GI50 (TK-10 renal) was 1800 nM. It also gave a TGI (TK-10 renal) of 3510 nM, a GI50 (SF-268 CNS) of 1660 nM and a TGI (SF-268 CNS) of 3430 nM. The GI50 (SK-MEL-28 melanoma) was 1880 nM, the TGI (SK-MEL-28 melanoma) was 3890 nM and the GI50 (HT29 colon) was 493 nM. The TGI (HT29 colon) was 1870 nM, the GI50 (HCT-15 colon) was 1140 nM and the TGI (HCT-15 colon) was 2620 nM. It also gave a GI50 (HOP-92 NSCLC) of 1150 nM, a TGI (HOP-92 NSCLC) of 2940 nM and a GI50 (SNB-19 CNS) of 1740 nM. The TGI (SNB-19 CNS) was 3600 nM, the GI50 (A498 renal) was 932 nM and the TGI (A498 renal) was 2540 nM. For the same molecule, the GI50 (SR leukemia) was 1170 nM, the TGI (SR leukemia) was 4010 nM and the GI50 (SF-295 CNS) was 1670 nM. It also gave a TGI (SF-295 CNS) of 3200 nM, a GI50 (786-0 renal) of 1670 nM and a TGI (786-0 renal) of 3210 nM. For the same molecule, the GI50 (LOX IMVI melanoma) was 1070 nM, the TGI (LOX IMVI melanoma) was 2320 nM and the GI50 (OVCAR-5 ovarian) was 1800 nM. It also gave a TGI (OVCAR-5 ovarian) of 3750 nM, a GI50 (U251 CNS) of 1460 nM and a TGI (U251 CNS) of 2980 nM. The GI50 (UACC-62 melanoma) was 1830 nM, the TGI (UACC-62 melanoma) was 3880 nM and the GI50 (IGROV1 ovarian) was 2330 nM. For the same molecule, the TGI (IGROV1 ovarian) was 5300 nM, the GI50 (COLO 205 colon) was 1700 nM and the TGI (COLO 205 colon) was 3490 nM. It also gave a GI50 (RXF 393 renal) of 1420 nM, a TGI (RXF 393 renal) of 3030 nM and a GI50 (HCT-116 colon) of 1460 nM. The TGI (HCT-116 colon) was 2940 nM, the GI50 (NCI-H23 lung) was 1470 nM and the TGI (NCI-H23 lung) was 3000 nM. The GI50 (ACHN renal) was 1740 nM, the TGI (ACHN renal) was 3310 nM and the GI50 (K-562 leukemia) was 595 nM. It also gave a TGI (K-562 leukemia) of 2070 nM, a GI50 (HS 578T breast) of 1820 nM and a TGI (HS 578T breast) of 6100 nM. For the same molecule, the GI50 (KM12 colon) was 1500 nM, the TGI (KM12 colon) was 3050 nM and the GI50 (T-47D breast) was 1620 nM. It also gave a TGI (T-47D breast) of 4540 nM, a GI50 (SK-OV-3 ovarian) of 1810 nM and a TGI (SK-OV-3 ovarian) of 3490 nM. It also gave a GI50 (SK-MEL-2 melanoma) of 2440 nM, a TGI (SK-MEL-2 melanoma) of 4460 nM and a GI50 (MOLT-4 leukemia) of 1630 nM. It also gave a TGI (MOLT-4 leukemia) of 3910 nM, a GI50 (MDA-MB-435) of 1630 nM and a TGI (MDA-MB-435) of 3160 nM. It also gave a GI50 (CCRF-CEM leukemia) of 1570 nM, a TGI (CCRF-CEM leukemia) of 3640 nM and a GI50 (OVCAR-4 ovarian) of 1710 nM. It also gave a TGI (OVCAR-4 ovarian) of 4590 nM, a GI50 (HOP-62 NSCLC) of 1630 nM and a TGI (HOP-62 NSCLC) of 3180 nM. The GI50 (SK-MEL-5 melanoma) was 1700 nM, the TGI (SK-MEL-5 melanoma) was 3180 nM and the GI50 (BT-549 breast) was 1840 nM. For the same molecule, the TGI (BT-549 breast) was 3530 nM.
